Each structure is given as a SMILES string.

What all share (format): biochemical
In test [1] the target is T1, human CSNK1A1 (Homo sapiens (Human), UniProt P48729). The test can be described thus: CSNK1A1 Assay 2 (ADP-Glo, 1 μM ATP). The conditions noted are these: substrate biotin-Ahx-KRRRAL-pS-VASLPGL, read-out: CSNK1A1 Assay 2 IC50 [mol/l] (median). On the procedure: CSNK1A1-inhibitory activity of compounds of the present invention in presence of 1 μM adenosine-tri-phosphate (ATP) was quantified employing the CSNK1A1 assay as described in the following paragraphs. In essence, the enzyme activity is measured by quantification of the adenosine-di-phosphate (ADP), which is generated as a co-product of the enzyme reaction, via the “ADP-Glo™ Kinase Assay” kit from the company Promega. This detection system works as follows: In a first step the ATP not consumed in the kinase reaction is quantitatively converted to cAMP employing an adenylate cyclase (“ADP-Glo-reagent”), then the adenylate cyclase is stopped and the ADP generated in the kinase reaction converted to ATP which generates in a luciferase-based reaction a glow-luminescence signal (“Kinase Detection Reagent”). Recombinant fusion protein of N-terminal Glutathion-S-Transferase (GST) and full-length human CSNK1A1, expressed by baculovirus infected insect cells and purified via Glutathion affinity chromatography, was purchased from Life Technologies (product no. PV4174) and used as enzyme. As substrate for the kinase reaction the biotinylated peptide biotin-Ahx-KRRRAL-pS-VASLPGL (C-terminus in amide form) was used which can be purchased e.g. from the company Biosyntan (Berlin-Buch, Germany).
For the assay 50 nl of a 100 fold concentrated solution of the test compound in DMSO was pipetted into a white 1536-well microtiter plate (Greiner Bio-One, Frickenhausen, Germany), 2 μL of a solution of CSNK1A1 in aqueous assay buffer [50 mM HEPES pH 7.5, 10% (v/v) glycerol, 10 mM MgCl2, 50 mM NaCl, 1 mM dithiothreitol, 0.01% (w/v) bovine serum albumin, 0.01% (v/v) Triton X-100] were added and the mixture was incubated for 15 min at 22° C. to allow pre-binding of the test compounds to the enzyme before the start of the kinase reaction. […] The concentration of CSNK1A1 was adjusted depending of the activity of the enzyme lot and was chosen appropriate to have the assay in the linear range, a typical concentrations are about 0.0375 ng/μL. The reaction was stopped by the addition of 2.5 μL of “ADP-Glo-reagent” (1:1.5 fold diluted with water) and the resulting mixture was incubated at 22° C. for 1 h to convert the ATP not consumed in the kinase reaction completely […]. Subsequently 2.5 μL of the “kinase detection reagent” (1.2 fold more concentrated than recommended by the producer) were added, the resulting mixture was incubated at 22° C. for 1 h and then the luminescence measured with a suitable measurement instrument (e.g. Viewlux™ from Perkin-Elmer). The amount of emitted light was taken as a measure for the amount of ADP generated and thereby for the activity of the CSNK1A1.

Test [2] has as its target wild-type Epidermal Growth Factor Receptor (EGFR) (Homo sapiens (Human), UniProt P00533). Kind of test: WT-EGFR Kinase Assay (TR-FRET, 2 mM ATP). The note with it: EGFR Wildtyp- 2 mM ATP IC50 [mol/l] (median).
Test [3] has as its target T1, human CSNK1A1. The test can be described thus: CSNK1A1 High ATP Assay (ADP-Glo, 1 mM ATP). The note with it: read-out: CSNK1A1 high ATP assay IC50 [mol/l] (median). On the procedure: CSNK1A1-inhibitory activity of compounds of the present invention in presence of 1 mM adenosine-tri-phosphate (ATP) was quantified employing the CSNK1A1-high-ATP-assay as described in the following paragraphs. In essence, the enzyme activity is measured by quantification of the adenosine-di-phosphate (ADP), which is generated as a co-product of the enzyme reaction, via the “ADP-Glo™ Kinase Assay” kit from the company Promega. This detection system works as follows: In a first step the ATP not consumed in the kinase reaction is quantitatively converted to cAMP employing an adenylate cyclase (“ADP-Glo-reagent”), then the adenylate cyclase is stopped and the ADP generated in the kinase reaction converted to ATP which generates in a luciferase-based reaction a glow-luminescence signal (“Kinase Detection Reagent”).
Recombinant fusion protein of N-terminal Glutathion-S-Transferase (GST) and full-length human CSNK1A1, expressed by baculovirus infected insect cells and purified via Glutathion affinity chromatography, was purchased from Life Technologies (product no. PV4174) and used as enzyme. As substrate for the kinase reaction the biotinylated peptide biotin-Ahx-KRRRAL-pS-VASLPGL (C-terminus in amide form) was used which can be purchased e.g. from the company Biosyntan (Berlin-Buch, Germany).
For the assay 50 nl of a 100 fold concentrated solution of the test compound in DMSO was pipetted into a white low volume 384-well microtiter plate (Greiner Bio-One, Frickenhausen, Germany), 2 μL of a solution of CSNK1A1 in aqueous assay buffer [50 mM HEPES pH 7.5, 10% (v/v) glycerol, 10 mM MgCl2, 50 mM NaCl, 1 mM dithiothreitol, 0.01% (w/v) bovine serum albumin, 0.01% (v/v) Triton X-100] were added and the mixture was incubated for 15 min at 22° C. to allow pre-binding of the test compounds to the enzyme before the start of the kinase reaction. […] The concentration of CSNK1A1 was adjusted depending of the activity of the enzyme lot and was chosen appropriate to have the assay in the linear range, a typical concentration is about 0.4 ng/μL. The reaction was stopped by the addition of 2.5 μL of “ADP-Glo-reagent” (1:1.5 fold diluted with water) and the resulting mixture was incubated at 22° C. for 1 h to convert the ATP not consumed in the kinase reaction completely […]. Subsequently 2.5 μL of the “kinase detection reagent” (1.2 fold more concentrated than recommended by the producer) were added, the resulting mixture was incubated at 22° C. for 1 h and then the luminescence measured with a suitable measurement instrument (e.g. Viewlux™ from Perkin-Elmer). The amount of emitted light was taken as a measure for the amount of ADP generated and thereby for the activity of the CSNK1A1.
(In general: ADP-Glo turns the ADP formed in a reaction into a luminescent signal.)

The target of a further test is human CSNK1D (Homo sapiens (Human), UniProt P48730). Kind of test: CSNK1D Assay (ADP-Glo, 1 μM ATP). The conditions noted are these: read-out: CSNK1D IC50 [mol/l] (median). On the procedure:
CSNK1 D-inhibitory activity of compounds of the present invention in presence of 1 μM adenosine-tri-phosphate (ATP) was quantified employing the CSNK1D assay as described in the following paragraphs. In essence, the enzyme activity is measured by quantification of the adenosine-di-phosphate (ADP), which is generated as a co-product of the enzyme reaction, via the “ADP-Glo™ Kinase Assay” kit from the company Promega. This detection system works as follows: In a first step the ATP not consumed in the kinase reaction is quantitatively converted to cAMP employing an adenylate cyclase (“ADP-Glo-reagent”), then the adenylate cyclase is stopped and the ADP generated in the kinase reaction converted to ATP which generates in a luciferase-based reaction a glow-luminescence signal (“Kinase Detection Reagent”). Recombinant fusion protein of N-terminal Glutathion-S-Transferase (GST) and full-length human CSNK1D, expressed by baculovirus infected insect cells and purified via Glutathion affinity chromatography, was purchased from Life Technologies (product no. PV3665) and used as enzyme. As substrate for the kinase reaction the biotinylated peptide Btn-Ahx-[…] (C-terminus in amide form) was used which can be purchased e.g. from the company Biosyntan (Berlin-Buch, Germany).
For the assay 50 nl of a 100 fold concentrated solution of the test compound in DMSO was pipetted into a white 1536-well microtiter plate (Greiner Bio-One, Frickenhausen, Germany), 2 μL of a solution of CSNK1D in aqueous assay buffer [50 mM HEPES pH 7.5, 10% (v/v) glycerol, 10 mM MgCl2, 50 mM NaCl, 1 mM dithiothreitol, 0.01% (w/v) bovine serum albumin, 0.01% (v/v) Triton X-100] were added and the mixture was incubated for 15 min at 22° C. to allow pre-binding of the test compounds to the enzyme before the start of the kinase reaction. […] The concentration of CSNK1 D was adjusted depending of the activity of the enzyme lot and was chosen appropriate to have the assay in the linear range, a typical concentration is about 0.5 ng/μL. The reaction was stopped by the addition of 2.5 μL of “ADP-Glo-reagent” (1:1.5 fold diluted with water) and the resulting mixture was incubated at 22° C. for 1 h to convert the ATP not consumed in the kinase reaction completely […]. Subsequently 2.5 μL of the “kinase detection reagent” (1.2 fold more concentrated than recommended by the producer) were added, the resulting mixture was incubated at 22° C. for 1 h and then the luminescence measured with a suitable measurement instrument (e.g. Viewlux™ from Perkin-Elmer). The amount of emitted light was taken as a measure for the amount of ADP generated and thereby for the activity of the CSNK1D.

wild-type Epidermal Growth Factor Receptor (EGFR), sequence (P00533 669-1210): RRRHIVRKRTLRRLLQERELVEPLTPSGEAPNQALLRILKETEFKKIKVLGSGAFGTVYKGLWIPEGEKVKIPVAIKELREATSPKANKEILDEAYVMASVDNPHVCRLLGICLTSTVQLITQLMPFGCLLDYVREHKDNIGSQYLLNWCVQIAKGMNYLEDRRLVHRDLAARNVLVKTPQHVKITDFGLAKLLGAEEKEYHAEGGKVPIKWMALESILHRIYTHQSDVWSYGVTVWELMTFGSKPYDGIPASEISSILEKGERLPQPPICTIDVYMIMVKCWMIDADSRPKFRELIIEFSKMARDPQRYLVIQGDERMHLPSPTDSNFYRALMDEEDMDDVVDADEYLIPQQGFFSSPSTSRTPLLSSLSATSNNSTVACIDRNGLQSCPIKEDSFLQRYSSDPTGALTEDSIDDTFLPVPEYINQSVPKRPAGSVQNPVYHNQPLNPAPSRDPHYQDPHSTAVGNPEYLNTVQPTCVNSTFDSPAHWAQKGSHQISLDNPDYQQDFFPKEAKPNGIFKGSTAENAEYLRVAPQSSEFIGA
T1 sequence (P48729 whole entry): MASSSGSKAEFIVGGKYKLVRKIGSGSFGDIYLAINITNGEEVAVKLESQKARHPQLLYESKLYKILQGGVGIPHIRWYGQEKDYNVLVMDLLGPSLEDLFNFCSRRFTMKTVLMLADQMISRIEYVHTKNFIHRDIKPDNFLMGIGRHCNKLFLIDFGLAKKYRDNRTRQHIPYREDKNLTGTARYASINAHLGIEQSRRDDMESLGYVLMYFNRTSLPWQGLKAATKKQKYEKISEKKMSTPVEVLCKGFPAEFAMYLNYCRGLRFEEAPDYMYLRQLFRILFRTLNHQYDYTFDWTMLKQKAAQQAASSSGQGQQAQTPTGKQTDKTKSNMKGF
human CSNK1D, sequence (P48730 whole entry): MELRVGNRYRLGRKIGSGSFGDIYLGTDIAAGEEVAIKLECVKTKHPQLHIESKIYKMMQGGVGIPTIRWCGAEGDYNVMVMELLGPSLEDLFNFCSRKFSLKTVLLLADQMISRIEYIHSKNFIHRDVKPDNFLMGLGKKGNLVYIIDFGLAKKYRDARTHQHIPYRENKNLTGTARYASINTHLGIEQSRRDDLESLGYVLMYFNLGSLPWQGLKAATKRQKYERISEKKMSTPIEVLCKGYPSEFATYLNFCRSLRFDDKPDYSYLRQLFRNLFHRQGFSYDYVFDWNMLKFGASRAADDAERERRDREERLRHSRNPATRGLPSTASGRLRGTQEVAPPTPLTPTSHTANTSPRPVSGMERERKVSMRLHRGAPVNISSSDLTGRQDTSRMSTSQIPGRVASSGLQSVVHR

`CC(C(=O)Nc1cc(-c2[nH]c3c(c2Nc2ccccc2)C(=O)N(C)CC3)ccn1)c1ccc(Cl)cc1` (racemic) [Example 79, N-[4-(3-anilino-5-methyl-4-oxo-4,5,6,7-tetrahydro-1H-pyrrolo[3,2-c]pyridin-2-yl)pyridin-2-yl]-2-(4-chlorophenyl)propanamide]: the IC50 was 0.00893 µM on human CSNK1A1 [1], over 20 µM in test [2], 0.337 µM at human CSNK1A1 [3] and 0.0195 µM on human CSNK1D.

As to `CC1Cc2[nH]c(-c3ccnc(NC(=O)Cc4ccc(F)cc4)c3)c(Nc3ccccc3)c2C(=O)N1C` (racemic) [Example 88, N-{4-[3-anilino-5,6-dimethyl-4-oxo-4,5,6,7-tetrahydro-1H-pyrrolo[3,2-c]pyridin-2-yl]pyridin-2-yl}-2-(4-fluorophenyl)acetamide], the IC50 at human CSNK1A1 [1] stood at 0.00233 µM; in test [2], 0.727 µM; at human CSNK1A1 [3], 0.0651 µM; on human CSNK1D, 0.00518 µM.

For `CC1Cc2[nH]c(-c3ccnc(NC(=O)Cc4ccncc4)c3)c(Nc3ccccc3)c2C(=O)N1C` (racemic) [Example 97, N-{4-[3-anilino-5,6-dimethyl-4-oxo-4,5,6,7-tetrahydro-1H-pyrrolo[3,2-c]pyridin-2-yl]pyridin-2-yl}-2-(pyridin-4-yl)acetamide], the IC50 came to 0.0044 µM on human CSNK1A1 [1], 0.529 µM in test [2], 0.047 µM on human CSNK1A1 [3] and 0.00573 µM on human CSNK1D.

For `CC1Cc2[nH]c(-c3ccnc(NC(=O)Cc4ccc(F)cc4)c3)c(Nc3ccccc3F)c2C(=O)N1C` (racemic) [Example 100, N-{4-[3-(2-fluoroanilino)-5,6-dimethyl-4-oxo-4,5,6,7-tetrahydro-1H-pyrrolo[3,2-c]pyridin-2-yl]pyridin-2-yl}-2-(4-fluorophenyl)acetamide], the IC50 on human CSNK1A1 [1] was determined as 0.00397 µM; in test [2] it was 3.83 µM; on human CSNK1A1 [3] it was 0.254 µM; at human CSNK1D, 0.0156 µM.

Take `CC1(C)Cc2[nH]c(-c3ccnc(NC(=O)C(CC(F)F)c4ccc(F)cc4)c3)c(Nc3cccc(F)c3Cl)c2C(=O)N1` (racemic) [Example 109, N-{4-[3-(2-chloro-3-fluoroanilino)-6,6-dimethyl-4-oxo-4,5,6,7-tetrahydro-1H-pyrrolo[3,2-c]pyridin-2-yl]pyridin-2-yl}-4,4-difluoro-2-(4-fluorophenyl)butanamide]: the IC50 is 0.0164 µM at human CSNK1A1 [1], over 20 µM in test [2], 0.136 µM at human CSNK1A1 [3] and 0.0141 µM at human CSNK1D.

Turning to `CC1(C)Cc2[nH]c(-c3ccnc(NC(=O)C(CC(F)F)c4ccc(S(C)(=O)=O)cc4)c3)c(Nc3ccccc3)c2C(=O)N1` (racemic) [Example 118, N-[4-(3-anilino-6,6-dimethyl-4-oxo-4,5,6,7-tetrahydro-1H-pyrrolo[3,2-c]pyridin-2-yl)pyridin-2-yl]-4,4-difluoro-2-[4-(methanesulfonyl)phenyl]butanamide (Racemate)], the IC50 on human CSNK1A1 [1] was 0.00516 µM; in test [2] it was 7.26 µM; at human CSNK1A1 [3] it was 0.107 µM; on human CSNK1D, 0.0129 µM.

Consider `O=C1NC2(CCC2)Cc2[nH]c(-c3ccnc(NC(=O)C(CC(F)F)c4ccc(F)cc4)c3)c(Nc3cccc(F)c3Cl)c21` (racemic) [Example 123, N-{4-[3′-(2-chloro-3-fluoroanilino)-4′-oxo-1′,4′,5′,7′-tetrahydrospiro[cyclobutane-1,6′-pyrrolo[3,2-c]pyridin]-2′-yl]pyridin-2-yl}-4,4-difluoro-2-(4-fluorophenyl)butanamide (Racemate)], for which the IC50 at human CSNK1A1 [1] was 0.0135 µM; in test [2], 0.0564 µM; on human CSNK1A1 [3], 0.0291 µM; on human CSNK1D, 0.00991 µM.

`CC1(C)Cc2[nH]c(-c3ccnc(NC(=O)C(CC(F)F)c4ccc(F)cc4)c3)c(Nc3cccc(F)n3)c2C(=O)N1` (racemic) [Example 128, 4,4-difluoro-2-(4-fluorophenyl)-N-(4-{3-[(6-fluoropyridin-2-yl)amino]-6,6-dimethyl-4-oxo-4,5,6,7-tetrahydro-1H-pyrrolo[3,2-c]pyridin-2-yl}pyridin-2-yl)butanamide (Racemate)]: the IC50 is 0.00716 µM on human CSNK1A1 [1], over 20 µM in test [2], 0.0314 µM at human CSNK1A1 [3] and 0.0114 µM at human CSNK1D.

For the origin of these results see US12227501B2, “3-amino-2-[2-(acylamino)pyridin-4-yl]-1,5,6,7-tetrahydro-4h-pyrrolo[3,2-c]pyridin-4-one as CSNK1 inhibitors” (Bayer Aktiengesellschaft, priority 2019, dated 2025).
